Entries after “also recorded” stand apart in the source; their conditions may differ.
Legend:
[1] = tested on: pressure overload-induced mouse model of HF (TAC); assay: Invasive P–V loop haemodynamics in TAC heart failure mice; assay type: in vivo
Method: B6C3F1 mice were acquired from Jackson Laboratories. Mice underwent TAC using a supraclavicular construction model as described. TAC or sham surgery was performed in 8∼10-week-old male mice (25∼30 g). Mice were anaesthetized with intraperitoneal ketamine (95 mg kg^−1) and xylaxine (5 mg kg^−1), and ventilated with a tidal volume of 0.1 ml and a respiratory rate of 110 breaths per minute (Harvard Apparatus, MA, USA). A 2- to 3-mm longitudinal cut was made in the proximal portion of the sternum, allowing visualization of the aortic arch. The transverse aortic arch was ligated between the innominate and left common carotid arteries with an overlaying 27-gauge needle. The needle was immediately removed, leaving a discrete region of constriction. Animal sham group underwent a similar procedure without ligation. Only animals with fractional shortening < 50% were determined as being in HF and suitable for further study.
(§1) One day after echocardiography, we performed in-vivo haemodynamics. The mice were anaesthetized with an intraperitoneal injection mixture of urethane (1 mg g^−1), etomidate (10 μg g^−1) and morphine (1 μg g^−1), and were then intubated via a tracheotomy and mechanically ventilated at 7 μl g^−1 tidal volume and 120 respirations per minute. A small incision was made in the apex and a French Millar cathether connected a high-fidelity pressure transducer (Scisense, London, ON, Canada) inserted into the LV. Haemodynamic recordings were performed after 5∼10 min of stable HR. The rate of pressure rise (+dP/dt) and maximal pressure, the time constant of isovolumic relaxation and HR were recorded and analysed. To determine the relative effects of the admittance and conductance techniques to contractility change induced by N106 compound infusion, whole haemodynamic function was recorded at both baseline and after administration of N106 compound through the external jugular vein. N106 compound was solubilized in 10% DMSO (Sigma-Aldrich), 10% Tween-80 (Sigma-Aldrich) and saline for in-vivo experiments. N106 or vehicle solutions were continuously infused through the external jugular vein at a rate of 50 μl min^−1 for 2 min in each dose. Whole haemodynamic functions of increasing dose of N106 of each mouse were recorded for ∼4 h. Each dose of N106 solution was infused after back to baseline of heart function.

Serca2 KO mice = assay: Invasive P–V loop haemodynamics in cardiac-specific Serca2a knockout mice; assay type: in vivo
Method: Figure 5 Lack of effects of N106 on haemodynamic parameters in cardiac-specific Serca2a knockout mice. Systolic and diastolic function was determined in conditional cardiac-specific Serca2a knockout mice by pressure–volume analysis. […] There was no significant change in haemodynamic parameters with N106 treatment after a single dose (1 mg kg^−1) (a-f) and different doses (0.1, 1 and 10 mg kg^−1) (g,h). Data are represented as mean±s.e.m. n=3∼8 mice per each condition. NS, not significant; Student’s t-test.
as §1

sham-operated mice = assay: Haemodynamic measurements in sham-operated mice; assay type: in vivo; conditions: sham mice, 0.1, 1, 10 mg kg^−1
Method: as §1, with “Each dose of N106 solution was infused after back to baseline of heart function.” left out

[2] = tested on: NCI-60 human tumour cell lines; assay: NCI-60 human tumour cell screen (sulforhodamine B); assay type: cell-based; conditions: single dose 10^-5 M, 48 hours, 60 tumor cell panels incl. MDA-MB-231
Description: One concern about an agent that enhances SUMOylation is off-target effects including tumour growth. Several studies reported direct involvement of SUMO E1 in the setting of cancer. In patients with hepatocellular carcinoma, UBA2 gene expression was higher and directly correlated with lower survival rate[25]. SUMO E1 was also reported to be an important factor for myc-dependent tumour growth in mice and there is a correlation between low SUMO E1 gene expression and longer metastasis-free survival rate of patients with myc-high breast cancers. Thus, we sought to determine whether N106 would have an effect on cancer cell growth. We performed the NCI-60 human tumour cell screen used by the National Cancer Institute’s Developmental Therapeutics Program (http://dtp.cancer.gov/docs/compare/compare.html). The NCI-60 set includes leukemia, lymphomas and carcinomas of ovarian, renal, breast, prostate, colon, lung and central nervous system origin.
Supplementary Figure 12. NCI 60 cell screening. N106 submitted to the NCI 60 cell screen
has been tested initially at a single high dose of 10^-5 M in 60 different tumor cell panels. 48 hours
after compound treatment, cell density and proliferation was determined by sulforhodamine B

[3] = Serca2a knockout mice, 1 mg kg^−1

COc1ccc(-c2nnc(Nc3nc4c(OC)cccc4s3)o2)cc1 [Compound N106, N-(4-methoxybenzo[d]thiazol-2-yl)-5-(4-methoxyphenyl)-1,3,4-oxadiazol-2-amine]
+dP/dtmax ([1]; 0.1 mg kg^−1 infusion): 4803.33±91.78 mm Hg s^−1 | HR ([1]; 0.1 mg kg^−1 infusion): 417.11±4.54 bpm | Pmax ([1]; 0.1 mg kg^−1 infusion): 115.11±1.27 mm Hg | τ, time constant of isovolumetric relaxation ([1]; 0.1 mg kg^−1 infusion): 7.50 ± 0.15 ms | ESPVR slope ([1]; 0.1 mg kg^−1 infusion via jugular vein): 9.04±1.20 mm Hg μl^−1 | +dP/dtmax ([1]; 1 mg kg^−1 infusion): 5448.83±147.09 mm Hg s^−1 | ESPVR slope ([1]; 1 mg kg^−1 infusion): 11.26±1.00 mm Hg μl^−1 | HR ([1]; 1 mg kg^−1 infusion): 422.33±3.79 bpm | Pmax ([1]; 1 mg kg^−1 infusion): 123.66±5.28 mm Hg | τ, time constant of isovolumetric relaxation ([1]; 1 mg kg^−1 infusion): 6.40 ± 0.15 ms | +dP/dtmax ([1]; 10 mg kg^−1 infusion): 6229.41±103.23 mm Hg s^−1 | ESPVR slope ([1]; 10 mg kg^−1 infusion): 20.3±0.41 mm Hg μl^−1 | HR ([1]; 10 mg kg^−1 infusion): 455.08±5.62 bpm | Pmax ([1]; 10 mg kg^−1 infusion): 124.50±4.26 mm Hg | τ, time constant of isovolumetric relaxation ([1]; 10 mg kg^−1 infusion): 6.27 ± 0.13 ms | improvements in haemodynamic parameters (Serca2 KO mice; Serca2 KO, 1 mg kg^−1 and 0.1, 1 and 10 mg kg^−1): did not induce any improvements | +dP/dtmax (Serca2 KO mice; [3]): 2917.8±412.9 mm Hg s^−1 | HR (Serca2 KO mice; [3]): 311.2±16.1 bpm | Pmax (Serca2 KO mice; [3]): 75.0±4.4 mm Hg | τ (Serca2 KO mice; [3]): 11.2 ± 1.0 ms | ESPVR slope (Serca2 KO mice; Serca2a knockout mice, 1 mg kg^−1 via jugular vein): 3.9±0.7 mm Hg μl^−1 | effect on ESPVR slope, dP/dt max, maximal pressure and heart rate (sham-operated mice): no significant effect; also recorded: not statistically significant | tumour cell growth and proliferation [2]: has not shown any significant oncogenic activity; also recorded: did not induce any tumour cell growth and proliferation

From publication PMC4467461, “Small-molecule activation of SERCA2a SUMOylation for the treatment of heart failure” (Nature Communications, 2015)
